Laboratory results published in paper PMC12931196, “Vm–MSI: a Vancomycin–Antimicrobial Peptide Conjugate Combating Resistant Bacteria and Broadening the Antimicrobial Spectrum” (Advanced Science, 2025).
Where two headings read alike, the source gives them in different places. Ends that are not written are not given here.

Assays:
VRSA 52 biofilm = format: cell-based, S. aureus; settings: 4 µM, 48 h, crystal violet, OD595
Method: (§1) The mixture was incubated in a 96‐well plate for 48 h. Subsequent steps, including washing, fixation, staining, and OD measurement, were performed as described in the biofilm eradication assay.

MDR K. pneumoniae 3 = settings: MH broth, 37 °C, 18 h, OD600
E. coli ATCC25922 [1] = assay: Live/dead bacteria staining (PI/SYTO9, CLSM); format: cell-based; settings: 4 µM, 1 h
human erythrocytes = assay: Hemolytic activity assay; format: cell-based; settings: 32 µM; human blood cells, 37 °C, 30 min, A540, 1% Triton X‐100 positive control
[2] = tested on: E. coli ATCC25922 biofilm; format: cell-based; settings: 4 µM, 48 h, crystal violet, OD595
Method: as §1

[3] = tested on: MDR P. aeruginosa 5 biofilm; format: cell-based; settings: 4 µM, 48 h, crystal violet, OD595
Method: as §1

S. flexneri ATCC12022 = assay: MIC, 2 fold broth microdilution; format: cell-based; settings: MH broth, 37 °C, 18 h, OD600
Method: (§2) The 2 fold broth microdilution method was performed following previously established protocols.^[ [65], [66] ^] A total of 29 strains of human pathogenic microorganisms (11 Gram‐positive and 18 Gram‐negative) were included in the assay. Standard strains were maintained in our laboratory, and clinical isolates were obtained from the Fourth Affiliated Hospital of Soochow University. […] Gradient dilutions of the drugs (vancomycin, AMPs, and vancomycin‐AMP conjugates) were prepared in 96‐well plates, with 50 µL of each drug solution added per well. For the vancomycin and AMP mixture, 25 µL of vancomycin was combined with 25 µL of AMP at the corresponding monomer gradient concentration, resulting in a total volume of 50 µL. […] Following incubation, bacterial growth was assessed by measuring absorbance at 600 nm. The MIC was defined as the lowest concentration at which no bacterial growth was detected.

S. flexneri CMCC51571 = assay: MIC, 2 fold broth microdilution; format: cell-based; settings: MH broth, 37 °C, 18 h, OD600
Method: as §2

P. aeruginosa CMCC10104 = assay: MIC, 2 fold broth microdilution; format: cell-based; settings: MH broth, 37 °C, 18 h, OD600
Method: as §2

S. typhimurium CICC21483 = assay: MIC, 2 fold broth microdilution; format: cell-based; settings: MH broth, 37 °C, 18 h, OD600
Method: as §2

B. cereus CMCC63301 = assay: MIC, 2 fold broth microdilution; format: cell-based; settings: MH broth, 37 °C, 18 h, OD600
Method: as §2

P. aeruginosa 52097 = assay: MIC, 2 fold broth microdilution; format: cell-based; settings: MH broth, 37 °C, 18 h, OD600
Method: as §2

P. aeruginosa 60357 = assay: MIC, 2 fold broth microdilution; format: cell-based; settings: MH broth, 37 °C, 18 h, OD600
Method: as §2

[4] = tested on: V. parahemolyticus ATCC17802; assay: MIC, 2 fold broth microdilution; format: cell-based; settings: MH broth, 37 °C, 18 h, OD600
Method: as §2

VRSA 52 biofilms = settings: 8 µM, 4 h, SYTO9/PI CLSM
C. perfringens ATCC13124 = settings: MH broth, 37 °C, 18 h, OD600
[5] = tested on: 29 bacterial strains (11 Gram‐positive, 18 Gram‐negative); assay: GM of the MICs across the 29 bacterial strains; format: cell-based; settings: MIC values exceeding 100 µg mL^−1 defaulted to 100 µg mL^−1
Method: as §2

[6] = tested on: E. coli ATCC25922 biofilms; settings: 8 µM, 4 h, SYTO9/PI CLSM
MDR K. pneumoniae 4 = settings: MH broth, 37 °C, 18 h, OD600
MDR K. pneumoniae 2 = settings: MH broth, 37 °C, 18 h, OD600
[7] = tested on: S. aureus CMCC26003 biofilm; assay: Biofilm inhibition, crystal violet; format: cell-based; settings: 4 µM, 48 h, OD595
Method: as §1

MDR A. baumannii 1 = settings: MH broth, 37 °C, 18 h, OD600
E. coli ATCC25922 [8] = assay: Antimicrobial resistance development assay; format: cell-based; settings: E. coli ATCC25922 cultured at sub‐MIC
K. pneumoniae 9883 = settings: 9883, 18 h
S. aureus ATCC29213 = settings: ATCC29213, 18 h
VRSA 11 = settings: 11, 18 h
E. faecalis ATCC29212 = settings: ATCC29212, 18 h
S. aureus 15772 = settings: 15772, 18 h
A. baumannii ATCC19606 = settings: ATCC19606, 18 h
S. typhimurium ATCC14028 = settings: ATCC14028, 18 h
P. aeruginosa ATCC27853 = settings: ATCC27853, 18 h
E. coli ATCC25922 [9] = settings: ATCC25922, 18 h
S. aureus 15192 = settings: 15192, 18 h
VRSA 52 = settings: VRSA 52; MH broth, 37 °C, 18 h, OD600
S. aureus CMCC26003 = settings: CMCC26003, 18 h
13 bacterial strains = assay: GM of MIC from tested bacterial strains (Table S2); format: cell-based; settings: 13 strains of Table S2
Method: as §2

MRSA ATCC43300 = settings: ATCC43300, 18 h

Row | Molecule | MIC (MDR K. pneumoniae 3) | bacteria killed (mortality) (E. coli ATCC25922 [1]) | MIC (S. flexneri ATCC12022) | MIC (S. flexneri CMCC51571) | MIC (P. aeruginosa CMCC10104) | MIC (S. typhimurium CICC21483) | MIC (B. cereus CMCC63301) | MIC (P. aeruginosa 52097) | MIC (P. aeruginosa 60357) | MIC [4] | killing in the middle layer of the biofilm (VRSA 52 biofilms) [%] | MIC (C. perfringens ATCC13124) | GM: Geometric mean of the MICs across the 29 bacterial strains [5] | MIC (MDR K. pneumoniae 4) | MIC (MDR K. pneumoniae 2) | MIC (MDR A. baumannii 1) | MIC (K. pneumoniae 9883) | MIC (S. aureus ATCC29213) | MIC (E. faecalis ATCC29212) | also measured
1 | CC[C@H](C)[C@H](NC(=O)CNC(=O)[C@@H](N)CSC1CC(=O)N(CC2CCC(C(=O)N(C)[C@H](CC(C)C)C(=O)N[C@H]3C(=O)N[C@@H](CC(N)=O)C(=O)N[C@H]4C(=O)N[C@H]5C(=O)N[C@H](C(=O)N[C@H](C(=O)O)c6cc(O)cc(O)c6-c6cc5ccc6O)[C@H](O)c5ccc(c(Cl)c5)Oc5cc4cc(c5O[C@@H]4O[C@H](CO)[C@@H](O)[C@H](O)[C@H]4O[C@H]4C[C@](C)(N)[C@H](O)[C@H](C)O4)Oc4ccc(cc4Cl)[C@H]3O)CC2)C1=O)C(=O)NCC(=O)N[C@@H](CCCCN)C(=O)N[C@@H](Cc1ccccc1)C(=O)N[C@@H](CC(C)C)C(=O)N[C@@H](CCCCN)C(=O)N[C@@H](CCCCN)C(=O)N[C@@H](C)C(=O)N[C@@H](CCCCN)C(=O)N[C@@H](CCCCN)C(=O)N[C@@H](Cc1ccccc1)C(=O)NCC(=O)N[C@@H](CCCCN)C(=O)N[C@@H](C)C(=O)N[C@@H](Cc1ccccc1)C(=O)N[C@H](C(=O)N[C@@H](CCCCN)C(=O)N[C@H](C(=O)N[C@@H](CC(C)C)C(=O)N[C@@H](CCCCN)C(=O)N[C@@H](CCCCN)C(N)=O)[C@@H](C)CC)C(C)C (stereo partly shown) [Vm‐MSI] | 2.21(9.38) µM | over 80% | 1.10(4.69) µM | 2.21(9.38) µM | 4.42(18.75) µM | 4.42(18.75) µM | 2.21(9.38) µM | 2.21(9.38) µM | 2.21(9.38) µM | 8.84(37.5) µM | 60 | 2.21(9.38) µM | 2.60(11.03) µM | 4.42(18.75) µM | 4.42(18.75) µM | 1.10(4.69) µM |  |  |  | biofilm formation inhibited (VRSA 52 biofilm): 60%; hemolysis (human erythrocytes): 10%; biofilm formation inhibited [2]: 60%; biofilm formation inhibited [3]: 50%; MIC (E. faecalis 2; E. faecalis 2, MH broth, 37 °C, 18 h, OD600): 4.42(18.75) µM; killing in the bottom layer of the biofilm (VRSA 52 biofilms): 50%; killing in the surface layer of the biofilm (dead cells) (VRSA 52 biofilms): 95%; killing at the bottom of the biofilm [6]: more than 75%; biofilm formation inhibited [7]: 80%; MIC (E. coli CMCC44102; E. coli CMCC44102, MH broth, 37 °C, 18 h, OD600): 2.21(9.38) µM; MIC (MDR P. aeruginosa 5; MDR P. aeruginosa 5, MH broth, 37 °C, 18 h, OD600): 2.21(9.38) µM
2 | O=C(O)c1cn(C2CC2)c2cc(N3CCNCC3)c(F)cc2c1=O [ciprofloxacin] |  |  |  |  |  |  |  |  |  |  |  |  |  |  |  |  |  |  |  | change of MIC over 20 generations (E. coli ATCC25922 [8]): 64 fold
3 | GIGKFLKKAKKFGKAFVKILKK-NH2 [MSI‐78] | 3.79(9.38) µM | 58% | 3.79(9.38) µM | 3.79(9.38) µM | 7.57(18.75) µM | 7.57(18.75) µM | 7.57(18.75) µM | 3.79(9.38) µM | 3.79(9.38) µM | 7.57(18.75) µM | 25 | 7.57(18.75) µM | 7.67(18.99) µM | 7.57(18.75) µM | 7.57(18.75) µM | 3.79(9.38) µM | 15.14(37.5) µM | 15.14(37.5) µM | 30.28(75) µM | MIC (E. faecalis 2; 2, 18 h): 15.14(37.5) µM; MIC (VRSA 11): 15.14(37.5) µM; MIC (E. coli CMCC44102; CMCC44102, 18 h): 15.14(37.5) µM; MIC (MDR P. aeruginosa 5; MDR 5, 18 h): 1.89(4.69) µM
4 | ILRWPWWPWRRK-NH2 [Omiganan] |  |  |  |  |  |  |  |  |  |  |  |  |  |  |  |  | >100(56.21) µg mL^−1 | 18.75(10.54) µg mL^−1 | 75(42.15) µg mL^−1 | MIC (S. aureus 15772): 18.75(10.54) µg mL^−1; MIC (A. baumannii ATCC19606): 75(42.15) µg mL^−1; MIC (S. typhimurium ATCC14028): 37.5(21.08) µg mL^−1; MIC (P. aeruginosa ATCC27853): 18.75(10.54) µg mL^−1; MIC (E. coli ATCC25922 [9]): 18.75(10.54) µg mL^−1; MIC (S. aureus 15192): 18.75(10.54) µg mL^−1; MIC (VRSA 52): 9.38(5.27) µg mL^−1; MIC (S. aureus CMCC26003): 2.34(1.32) µg mL^−1; GM: geometric mean of MIC from tested bacterial strains (13 bacterial strains): 36.00 µg/mL; MIC (MRSA ATCC43300): 37.5(21.08) µg mL^−1
